For twelve molecules, EC50 results are on record in patent US20200131132A1, “FARNESOID X RECEPTOR AGONISTS AND USES THEREOF” (Metacrine, Inc., priority 2017, published 2020).

The structures appear in SMILES notation. Where only a bound is given, the exact number is not on record here.

The target of the test is T1, hFXR (Homo sapiens, UniProt Q96RI1).
T1 construct: expressed in transfected cells; host or cells: CV-1 cells
T1 sequence (Q96RI1 1-486): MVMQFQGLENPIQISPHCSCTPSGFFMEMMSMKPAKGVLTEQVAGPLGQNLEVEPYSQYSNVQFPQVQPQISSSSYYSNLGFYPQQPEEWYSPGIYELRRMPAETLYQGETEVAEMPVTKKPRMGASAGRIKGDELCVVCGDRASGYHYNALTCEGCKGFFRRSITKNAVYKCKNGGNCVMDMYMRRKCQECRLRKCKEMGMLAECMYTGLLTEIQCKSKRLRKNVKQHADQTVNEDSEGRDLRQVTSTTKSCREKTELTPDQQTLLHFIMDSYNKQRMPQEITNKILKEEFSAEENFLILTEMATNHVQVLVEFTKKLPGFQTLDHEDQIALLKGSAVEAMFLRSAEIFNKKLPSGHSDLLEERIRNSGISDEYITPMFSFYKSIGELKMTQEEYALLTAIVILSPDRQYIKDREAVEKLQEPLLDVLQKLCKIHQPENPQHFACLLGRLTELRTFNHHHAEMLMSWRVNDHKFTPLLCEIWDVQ
T1 sequence (P19793 1-462 partner): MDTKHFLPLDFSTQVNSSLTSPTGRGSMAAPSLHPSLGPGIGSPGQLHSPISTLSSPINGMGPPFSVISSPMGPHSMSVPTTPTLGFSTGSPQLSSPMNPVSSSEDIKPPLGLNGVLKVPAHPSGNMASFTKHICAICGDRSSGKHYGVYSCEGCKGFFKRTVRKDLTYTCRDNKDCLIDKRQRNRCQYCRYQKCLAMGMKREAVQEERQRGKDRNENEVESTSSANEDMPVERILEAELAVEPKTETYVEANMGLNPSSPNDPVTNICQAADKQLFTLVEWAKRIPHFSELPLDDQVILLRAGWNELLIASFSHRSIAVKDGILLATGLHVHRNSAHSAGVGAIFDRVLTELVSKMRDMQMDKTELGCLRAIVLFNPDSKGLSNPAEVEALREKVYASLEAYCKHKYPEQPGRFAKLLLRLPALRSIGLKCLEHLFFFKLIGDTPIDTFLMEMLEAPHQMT
The test can be described thus: In Vitro FXR Assay (TK). The format is cell-based. The following applies: CV-1 cells transfected with hFXR, hRXR, TK-ECRE-luc and pCMX-YFP; compounds incubated 18 hrs; luminescence. How it is done:
CV-1 cells were seeded at a density of 2,000,000 cells in a T175 flask with DMEM+10% charcoal double-stripped FBS and incubated at 37° C. in 5% CO2 for 18 h (O/N).
After 18 h of incubation, the medium in the T175 flask was changed with fresh DMEM+10% charcoal super-stripped serum. In a polypropylene tube, 2500 μL OptiMEM (Life Technologies, Cat #31985-062) was combined with expression plasmids for hFXR, hRXR, TK-ECRE-luc and pCMX-YFP. The tube was then briefly vortexed and incubated at room temperature for 5 minutes. Transfection reagent (X-tremeGENE HP from Roche, Cat #06 366 236 001) was added to the OptiMEM/plasmid mixture vortexed and incubated at room temperature for 20 minutes. Following incubation, the transfection reagent/DNA mixture complex was added to cells in the T175 flask and the cells were incubated at 37° C. in 5% CO2 for 18 h (O/N).
Compounds were serially diluted in DMSO and added to transfected CV-1 cells. The cells were then incubated for 18 hrs. The next day cells were lysed and examined for luminescence.
For the molecule `COc1ccc(-c2ccc(CN(C(=O)CC(C)(C)C)c3nccc4cc(OCC(N)=O)ccc34)cc2)cc1C` [Compound 8.03, N-(6-(2-Amino-2-oxoethoxy)isoquinolin-1-yl)-N-((4′-methoxy-3′-methyl-[1,1′-biphenyl]-4-yl)methyl)-3,3-dimethylbutanamide], the EC50 – broadly, the concentration giving half of the maximal effect – was at most 1 µM.
With `COc1ccc2c(N(Cc3ccc(-c4ccc(OC)c(C)c4)cc3CO)C(=O)CC(C)(C)C)nccc2c1` [Compound 21, N-((3-(Hydroxymethyl)-4′-methoxy-3′-methyl-[1,1′-biphenyl]-4-yl)methyl)-N-(6-methoxyisoquinolin-1-yl)-3,3-dimethylbutanamide] the figure was 1 to 10 µM; with `COc1ccc(-c2ccc(CN(C(=O)CC(C)(C)C)c3nccc4ccncc34)cc2)cc1C` [Compound 5.04, N-((4′-Methoxy-3′-methyl-[1,1′-biphenyl]-4-yl)methyl)-3,3-dimethyl-N-(2,7-naphthyridin-1-yl)butanamide], 1 to 10 µM.
Molecule `COc1ccc2ccnc(N(Cc3ccc(-c4ccc(OC)c(C)c4)cc3)C(=O)CC(C)(C)C)c2c1` [Compound 11.03, N-((4′-Methoxy-3′-methyl-[1,1′-biphenyl]-4-yl)methyl)-N-(7-methoxyisoquinolin-1-yl)-3,3-dimethylbutanamide] gave an EC50 of at most 1 µM.
The molecule `COc1ccc(-c2ccc(CN(C(=O)CC(C)(C)C)c3nccc4cc(N5CCC(OC)C5)ccc34)cc2)cc1C` (stereo not drawn) [Compound 6.19, N-((4′-Methoxy-3′-methyl-[1,1′-biphenyl]-4-yl)methyl)-N-(6-(3-methoxypyrrolidin-1-yl)isoquinolin-1-yl)-3,3-dimethylbutanamide] displayed an EC50 of at most 1 µM.
`COc1ccc(-c2ccc(CN(C(=O)CC(C)(C)C)c3nccc4cc(OCC(C)CO)ccc34)cc2)cc1C` (stereo not drawn) [Compound 10, N-(6-(3-Hydroxy-2-methylpropoxy)isoquinolin-1-yl)-N-((4′-methoxy-3′-methyl-[1,1′-biphenyl]-4-yl)methyl)-3,3-dimethylbutanamide] showed an EC50 of at most 1 µM.
The molecule `COc1ccc(-c2ccc(CN(C(=O)CC(C)(C)C)c3nccc4cc(/C=C/CO)ccc34)cc2)cc1C` [Compound 23, (E)-N-(6-(3-Hydroxyprop-1-en-1-yl)isoquinolin-1-yl)-N-((4′-methoxy-3′-methyl-[1,1′-biphenyl]-4-yl)methyl)-3,3-dimethylbutanamide] came in with an EC50 of at most 1 µM.
The value for `COc1ccc(-c2ccc(CN(C(=O)CC(C)(C)C)c3nccc4cc(C(C)(C)O)ccc34)cc2)cc1C` [Compound 17, N-(6-(2-Hydroxypropan-2-yl)isoquinolin-1-yl)-N-((4′-methoxy-3′-methyl-[1,1′-biphenyl]-4-yl)methyl)-3,3-dimethylbutanamide] was at most 1 µM.
`COc1ccc(-c2ccc(CN(C(=O)CC(C)(C)C)c3nccc4cc(N5CCC5)ccc34)cc2)cc1C` [Compound 6.04, N-(6-(Azetidin-1-yl)isoquinolin-1-yl)-N-((4′-methoxy-3′-methyl-[1,1′-biphenyl]-4-yl)methyl)-3,3-dimethylbutanamide] gave an EC50 of at most 1 µM.
With `COc1ccc(-c2ccc(CN(C(=O)CC(C)(C)C)c3nccc4cc(OCCCO)cnc34)cc2)cc1C` [Compound 8.13, N-(3-(3-Hydroxypropoxy)-1,7-naphthyridin-8-yl)-N-((4′-methoxy-3′-methyl-[1,1′-biphenyl]-4-yl)methyl)-3,3-dimethylbutanamide] the figure was at most 1 µM; with `COC(=O)c1cc(-c2ccc(OC)c(C)c2)ccc1CN(C(=O)CC(C)(C)C)c1nccc2cc(OC)ccc12` [Compound 20.01, Methyl 4′-methoxy-4-((N-(6-methoxyisoquinolin-1-yl)-3,3-dimethylbutanamido)methyl)-3′-methyl-[1,1′-biphenyl]-3-carboxylate], over 10 µM; with `COc1ccc(-c2ccc(CN(C(=O)CC(C)(C)C)c3nccc4cc(N5CCCC5)ccc34)cc2)cc1C` [Compound 6.08, N-((4′-Methoxy-3′-methyl-[1,1′-biphenyl]-4-yl)methyl)-3,3-dimethyl-N-(6-(pyrrolidin-1-yl)isoquinolin-1-yl)butanamide], at most 1 µM.
